Experimental data published in ChEMBL document CHEMBL2203091, “Synthesis of novel МТ3 receptor ligands via an unusual Knoevenagel condensation” (Bioorg Med Chem Lett, 2012).

Columns and labels:
[1] = molecular target: T1, Ribosyldihydronicotinamide dehydrogenase [quinone] (Homo sapiens, UniProt P16083); assay: Binding affinity to […] reductase 2 using MTT and NMeH as substrates
T1 sequence (P16083 whole entry): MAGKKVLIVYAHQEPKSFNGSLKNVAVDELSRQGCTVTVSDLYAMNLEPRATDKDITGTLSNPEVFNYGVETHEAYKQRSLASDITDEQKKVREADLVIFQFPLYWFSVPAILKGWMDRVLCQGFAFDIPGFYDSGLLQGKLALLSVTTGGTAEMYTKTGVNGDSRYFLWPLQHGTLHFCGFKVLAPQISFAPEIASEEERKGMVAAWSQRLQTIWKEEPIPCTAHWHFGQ

[2] = molecular target: T2, Ribosyldihydronicotinamide dehydrogenase [quinone] (Homo sapiens) (UniProt P16083); assay: Inhibition of […] reductase 2 using MTT and NMeH as substrates
T2 sequence (whole entry): T1 sequence (P16083 whole entry)

[3] = molecular target: T2, Ribosyldihydronicotinamide dehydrogenase [quinone] (Homo sapiens); settings: 0.5 to 50 uM
Description: Inhibition of human recombinant quinine reductase 2 expressed in Escherichia coli BL21 (DE3) using menadione and NMeH as substrates at 0.5 to 50 uM

Row | IC50 [1] | Imax [2] | Imax [3] | Structure (SMILES)
1 | 14.1 µM | 100% |  | CC(=O)Nc1ccc2c(c1)C(CC#N)C(=O)N2 (stereo not given)
2 |  | 85.2% | 75% | COc1ccc2[nH]cc(CCNC(C)=O)c2c1
3 | 0.2 µM | 36.3% |  | CC(=O)NCCC1(O)C(=O)Nc2ccc(NC(C)=O)cc21 (stereo not given)
4 | 20.7 µM | 81.7% |  | CC(=O)NCCC1C(=O)Nc2ccc(NC(C)=O)cc21 (stereo not given)
5 | 7 µM | 99.2% |  | CC(=O)Nc1ccc2c(c1)C(CC#N)C(=O)N2C (stereo not given)
